# Measured values as given in US20260240865A1, “HARNESSING IKZF:BETA-CATENIN COMPLEXES IN THE TREATMENT OF LYMPHOCYTE ASSOCIATED DISEASES OR CONDITIONS” (Yale University, priority 2022, published 2026).
# “Also recorded” adds a separate entry of the source.
# What was measured:
# [1] = tested on: B-lymphoid leukemia and lymphoma cells; experiment: Cell viability assay (Cell Titer Glo 2.0) with GSK3β inhibitors; format: cell-based, human
# [2] = tested on: B-lymphoid leukemia and lymphoma cells; experiment: as above; format: cell-based, human; remark: listed apart in the source
# Protocol: Forty thousand patient-derived pre-B ALL cells or twenty thousand leukemia/lymphoma cell lines or ten thousand colon/lung cancer cells were seed in a volume of 80 μl in complete growth medium on 96-well plate. GSK3β3 inhibitors were added at the indicated concentration in a total volume of 100 μl. After treatment for 3 days, Cell Titer Glo 2.0 assays (Promega) were performed according to the manufacturer's instructions. Relative viability was calculated by measuring the luminescence value and normalizing it to baseline values of untreated cells.
# (§1) Data are shown as mean±s.d. unless stated. Statistical analysis was performed by GraphPad Prism 7 (GraphPad Software Inc.) using unpaired two-tailed t test or log-rank test as indicated in figure legends. Significance was considered at P<0.05. Kaplan-Meier survival analysis was used to estimate OS with GraphPad Prism 7. The investigators were not blinded to allocation during experiments and outcome assessment. Experiments were repeated to ensure reproducibility of the observations.
# [3] = tested on: refractory B-ALL PDX (LAX2); experiment: In vivo treatment of NSG mice bearing refractory B-ALL patient-derived xenografts
# Protocol: Patient derived BCR-ABL1 ALL were labeled with firefly luciferase and selected by 25 μg ml^−1 blasticidin. 1 million PDX cells pre-treated with LY2090314 (10 μg ml^−1) or vehicle control for four hours. Cells were washed twice and then injected via the tail vein into sublethally irradiated (190 cGy) NSG mice (8-12 week-old, female). LY2090314 or vehicle control (dissolved in 5% DMSO, 45% PEG300 and PBS) were administered intraperitoneally at dose of 12.5 mg kg^−1 body weight twice every day for 20 times. The in vivo expansion and leukemia burden were monitored by luciferase bioimaging (Lago X; Accela). Briefly, D-luciferin (Promega) was dissolved in PBS and injected intraperitoneally at a dose of 2.5 mg per mouse 15 min before measuring luminescent. All mice were anesthetized by 5% isoflurane and continued during detection of light emission with 2% isoflurane introduced through a nose cone. When the mice get the signs of leukemia (hunched back, weight loss and inability to move), they were euthanized. Bone marrow and spleen were collected and flow cytometry analysis was performed to check leukemia engraftment.
# as §1
# [4] = cited from earlier work
# autoreactive B-cells = experiment: Genetic mouse models for SLE and RA treated with GSK3β inhibitor; format: in vivo; details: 4 injections i.p., 20 mg/kg, once full-blown disease has developed
# Text: β-catenin activation in mouse models for SLE. As mouse models for SLE, lupus-prone B6.Sle1.Yaa mice will be studied, to be crossed on the B6Mb1^+/Crex Ctnnb1^ex3fl/fl model for B-cell-specific accumulation of β-catenin (FIG. 25). B6.Sle1.Yaa mice only require one backcross then intercross for Sle1 homozygosity, a large locus on chromosome 1 that promotes lupus susceptibility. One caveat of the B6.Sle1.Yaa model is that these are male mice, by contrast to female-dominant lupus in patients, since disease penetrance requires a second copy of Tlr7 on the Y chromosome (the Yaa allele). The B6.Sle1.Yaa faithfully replicates these outcomes as observed in other lupus-prone strains, including female predominant strains such as NZB/WF1 and MRL/1pr, or single gene models.
# β-catenin activation in mouse models for RA. For collagen-induced arthritis (CIA) as a model for RA, disease is modeled on a B6 background with the B6 Mbl^+/Cre×Ctnnb1^ex3fl/fl allele using chicken type II collagen as an immunogen. […] Both models of inflammatory synovitis have been established, CIA induced in DBA1 and B6. The colonies are readily available for analyzing outcomes in these animals, including detailed analysis of B- and T-cell responses, and degree of synovitis and joint damage. […]
# [5] = tested on: β-catenin and MYC protein levels in B-ALL cells; experiment: Western blot of β-catenin and MYC after GSK3β inhibitor treatment; format: cell-based, human
# Protocol: (§2) Cells were washed twice with ice-cold PBS and were lysed in CelLytic buffer (Sigma-Aldrich) supplemented with 1% protease inhibitor cocktail (Roche Diagnostics), 1% phosphatase inhibitor cocktail (EMD Millipore) and 1 mM PMSF (CST) on ice. 10-20 μg of cell lysates were separated on precast gels (Bio-Rad) and transferred on nitrocellulose membranes (Bio-Rad). After blocking for an hour in TBS-T with 2% BSA, membranes were probed with the appropriate primary antibodies listed in Table 6. Membranes were incubated with alkaline-phosphatase conjugated secondary antibodies (Invitrogen) and analyzed with Chemi Doc™ MP Imaging System (Bio-Rad). For fractionation experiment Nuclear and Cytoplasmic Extraction Reagent (Thermo Scientific) was used according to manufacturer's instructions.
# β-catenin = experiment: Western blot of colonies from MDS-derived CD34+ GFP+ progenitor cells; format: cell-based, human; details: large colonies after 12 days
# Protocol: as §2
# For colony forming assays, 10,000 mouse BCR-ABL1 or NRAS^G12D were grown on MethoCult medium (M3231 or M3630 (with IL-7) respectively, StemCell Technologies) in 3-cm diameter dishes with an extra dish filled with water to prevent evaporation. […] For all colony forming experiments, colonies were imaged and counted using GelCount (Oxford Optronix) and 7-14 days after plating.
# Non-targeted and targeted CD34^+ GFP^+ cells were stimulated in the presence of human cytokines and colony forming assays were performed. Large colonies were analyzed by Western blot after 12 days.
compound,measurement,setting,value
O=C1NC(=O)C(c2cnc3ccccn23)=C1c1cn2c3c(cc(F)cc13)CN(C(=O)N1CCCCC1)CC2 [LY2090314],IC50 in epithelial and myeloid cancer cells relative to B-ALL,[1]; 343 epithelial cancer cell lines (Prism Drug Repurposing Secondary Screen) vs B-ALL cell lines,236 fold
same,IC50 in epithelial and myeloid cancer cells relative to B-cell lymphoma,[1]; 343 epithelial cancer cell lines (Prism Drug Repurposing Secondary Screen) vs B-cell lymphoma cell lines,92 fold
same,responses in B-ALL PDX with vs without IKZF1-deletion,"[2]; 10 patient-derived xenografts, 5 with IKZF1-deletion",no significant differences
same,drug-responses in a larger panel of cell lines and PDX,"[2]; B-ALL, B-cell lymphoma, myeloid leukemia, colon, lung cancer, 0 up to 200 nM, 3 days",profound responses in B-ALL and B-cell lymphoma cells in the absence of significant effects on myeloid and epithelial tumor cells
same,selective cell death / drug response,"[2]; B-lymphoid vs myeloid and epithelial cells (PDX2, BV173, LAX2 vs THP1, SW620, H82), 3 days",induced cell death at low nanomolar concentrations selectively in B-lymphoid but not myeloid and epithelial cells; also recorded: B-cell selective activity at low nanomolar concentrations
same,responses in B-ALL PDX from chemotherapy-sensitive vs refractory/relapsed patients,[2]; FIG. 7D,did not affect responses
same,sensitivity of B-ALL cells with deletion of CTNNB1,"[2]; human B-ALL (BV173) gCTNNB1 vs gNT clones, 3 days",near-complete resistance
same,leukemia burden (bioluminescence imaging),"[3]; NSG mice with refractory B-ALL PDX, intraperitoneal, single agent vs vehicle",substantially reduced leukemia burden
same,overall survival,"[3]; NSG mice with refractory B-ALL PDX, intraperitoneal, P=6.5E-05, n=9",significantly extended overall survival
same,leukemia-initiation potential,"[3]; limiting doses (100-2,500 cells) of B-ALL PDX in transplant recipient mice",reduced the leukemia-initiation potential
same,weight loss / dose-limiting toxicity,[3]; treated NSG mice,did not show significant weight loss or other dose-limiting toxicity
same,adverse effects in clinical trials,[4]; Cmax micromolar,lymphopenia
same,Outcome: clinical responses,[4]; Phase 1 and 2,No clinical responses
same,Outcome: safety,[4]; Phase 1 and 2,"Phase 1 and 2, favorable safety"
same,Outcome: MTD,[4]; i.v.,80 mg
same,safety and tolerability / PK/PD profile in clinical trials,[4]; micromolar plasma concentrations (Cmax),demonstrated safety and tolerability at micromolar plasma concentrations
same,disease outcome in established SLE and RA,autoreactive B-cells,induce disease remission
same,β-catenin accumulation and MYC suppression,"[5]; B-ALL (PDX2) cells, 16 hours, FIGS. 7A, 7C, 18C",induced massive accumulation of β-catenin in parallel with acute suppression of MYC
same,MYC suppression in B-ALL cells with deletion of CTNNB1,"[5]; BV173, 20 nM, 16 hours",prevented suppression of MYC
same,β-catenin accumulation and MYC suppression in B-cell vs colon and lung cell lines,"[5]; pre-B cell and mature B-cell lines, colon and lung cancer cell lines, FIG. 28A",induced rapid accumulation of β-catenin protein and suppression of MYC in Ikaros-expressing B-cell lines but not colon and lung cell lines
same,β-catenin accumulation in non-targeted control colonies,β-catenin,induced accumulation of β-catenin in all 7 non-targeted control colonies
